According to patent US20130244999A1, “Substituted Heterocyclic Compounds” (Incyte Corporation, priority 2008, published 2013):

molecular target: T1, histamine H4 receptor (Homo sapiens, UniProt Q9H3N8); assay: Inhibition of histamine H4 receptor (Table A1; H4 membrane binding assay); conditions: not given
T1 construct: expressed in transfected cells; host or cells: HEK293SFM cells (membrane preparation)
Summary of the method: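 Radioligand binding was measured by filtration through PEI-treated GF/B filters with scintillation counting, using 1000× unlabeled ligand to define nonspecific binding. Membranes were prepared from HEK293SFM cells recombinantly expressing human H4 in ice-cold 50 mM Tris-HCl, pH 7.5, plus protease inhibitors.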

inhibition at 1 µM [%]	Structure (SMILES)
72	CC1Cc2ccc(-c3cnn(CC4(C#N)CC4)c3)cc2CN1c1cc(N2CCN(C)CC2)nc(N)n1 (single isomer, unassigned) [Example 97B, 1-[(4-{2-[2-amino-6-(4-methylpiperazin-1-yl)pyrimidin-4-yl]-3-methyl-1,2,3,4-tetrahydroisoquinolin-7-yl}-1H-pyrazol-1-yl)methyl]cyclopropanecarbonitrile]
70	CCNC(=O)c1cccc(-c2ccc3c(c2)CN(c2cc(N4CCN(C)CC4)nc(N)n2)C(C)C3)n1 (single isomer, unassigned) [Example 158, 6-{2-[2-Amino-6-(4-methylpiperazin-1-yl)pyrimidin-4-yl]-3-methyl-1,2,3,4-tetrahydroisoquinolin-7-yl}-N-ethylpyridine-2-carboxamide]

same assay, conditions: histamine H4 receptor; "> a" = exceeds experiment limit

Structure (SMILES)	IC50 [nM]
CC1Cc2ccc(-c3cnn(CC4CCCO4)c3)cc2CN1c1cc(N2CCN(C)CC2)nc(N)n1 (single isomer, unassigned) [Example 99A, 4-(4-Methylpiperazin-1-yl)-6-[3-methyl-7-[1-(tetrahydrofuran-2-ylmethyl)-1H-pyrazol-4-yl]-3,4-dihydroisoquinolin-2(1H)-yl]pyrimidin-2-amine]	83
CC1Cc2ccc(-c3cnn(CC4CCCO4)c3)cc2CN1c1cc(N2CCN(C)CC2)nc(N)n1 (single isomer, unassigned) [Example 99B, 4-(4-Methylpiperazin-1-yl)-6-[3-methyl-7-[1-(tetrahydrofuran-2-ylmethyl)-1H-pyrazol-4-yl]-3,4-dihydroisoquinolin-2(1H)-yl]pyrimidin-2-amine]	172
CC1Cc2ccc(-c3cnn(CCN4CCOCC4)c3)cc2CN1c1cc(N2CCN(C)CC2)nc(N)n1 (single isomer, unassigned) [Example 104, 4-[3-Methyl-7-[1-(2-morpholin-4-ylethyl)-1H-pyrazol-4-yl]-3,4-dihydroisoquinolin-2(1H)-yl]-6-(4-methylpiperazin-1-yl)pyrimidin-2-amine]	45
CC1Cc2ccc(-c3cnn(C(C)C)c3)cc2CN1c1cc(N2CCN(C)CC2)nc(N)n1 (single isomer, unassigned) [Example 105, 4-[7-(1-Isopropyl-1H-pyrazol-4-yl)-3-methyl-3,4-dihydroisoquinolin-2(1H)-yl]-6-(4-methylpiperazin-1-yl)pyrimidin-2-amine]	53
CC1Cc2ccc(-c3cnn(CC4CCC4)c3)cc2CN1c1cc(N2CCN(C)CC2)nc(N)n1 (single isomer, unassigned) [Example 106, 4-[7-[1-(cyclobutylmethyl)-1H-pyrazol-4-yl]-3-methyl-3,4-dihydroisoquinolin-2(1H)-yl]-6-(4-methylpiperazin-1-yl)pyrimidin-2-amine]	63
CC1Cc2ccc(-c3cnn(C4CCOC4)c3)cc2CN1c1cc(N2CCN(C)CC2)nc(N)n1 (single isomer, unassigned) [Example 108, 4-(4-Methylpiperazin-1-yl)-6-[3-methyl-7-[1-(tetrahydrofuran-3-yl)-1H-pyrazol-4-yl]-3,4-dihydroisoquinolin-2(1H)-yl]pyrimidin-2-amine]	46
CC1Cc2ccc(-c3cnn(CC4CCCC4)c3)cc2CN1c1cc(N2CCN(C)CC2)nc(N)n1 (single isomer, unassigned) [Example 109, 4-[7-[1-(Cyclopentylmethyl)-1H-pyrazol-4-yl]-3-methyl-3,4-dihydroisoquinolin-2(1H)-yl]-6-(4-methylpiperazin-1-yl)pyrimidin-2-amine]	100
CC1Cc2ccc(-c3cnn(CC(N)=O)c3)cc2CN1c1cc(N2CCN(C)CC2)nc(N)n1 (single isomer, unassigned) [Example 113, 2-(4-{2-[2-Amino-6-(4-methylpiperazin-1-yl)pyrimidin-4-yl]-3-methyl-1,2,3,4-tetrahydroisoquinolin-7-yl}-1H-pyrazol-1-yl)acetamide]	72
CC1Cc2ccc(-c3ccc(C(=O)N4CC[C@H](F)C4)nc3)cc2CN1c1cc(N2CCN(C)CC2)nc(N)n1 (single isomer, unassigned) [Example 154A]	85
CC1Cc2ccc(-c3ccc(C(=O)N4CC[C@H](F)C4)nc3)cc2CN1c1cc(N2CCN(C)CC2)nc(N)n1 (single isomer, unassigned) [Example 154B]	355
CC1Cc2ccc(-c3cnn(C)c3)cc2CN1c1cc(N2CCCC(N)C2)nc(N)n1 (stereo in doubt) [Example 119, 4-[(3S)-3-Aminopiperidin-1-yl]-6-[3-methyl-7-(1-methyl-1H-pyrazol-4-yl)-3,4-dihydroisoquinolin-2(1H)-yl]pyrimidin-2-amine]	91

Second part, the molecule after the results:

IC50 [nM]	Structure (SMILES)
42	CC1Cc2ccc(-c3cnn(CC4CC4)c3)cc2CN1c1cc(N2CCN(C)CC2)nc(N)n1 (single isomer, unassigned) [Example 102, 4-[7-[1-(Cyclopropylmethyl)-1H-pyrazol-4-yl]-3-methyl-3,4-dihydroisoquinolin-2(1H)-yl]-6-(4-methylpiperazin-1-yl)pyrimidin-2-amine]
42	CCn1cc(-c2ccc3c(c2)CN(c2cc(N4CCN(C)CC4)nc(N)n2)C(C)C3)cn1 (single isomer, unassigned) [Example 107, 4-[7-(1-Ethyl-1H-pyrazol-4-yl)-3-methyl-3,4-dihydroisoquinolin-2(1H)-yl]-6-(4-methylpiperazin-1-yl)pyrimidin-2-amine]
40	COCCn1cc(-c2ccc3c(c2)CN(c2cc(N4CCN(C)CC4)nc(N)n2)C(C)C3)cn1 (single isomer, unassigned) [Example 112, 4-[7-[1-(2-Methoxyethyl)-1H-pyrazol-4-yl]-3-methyl-3,4-dihydroisoquinolin-2(1H)-yl]-6-(4-methylpiperazin-1-yl)pyrimidin-2-amine]
40	CC1Cc2ccc(-c3cnn(C4CCCC4)c3)cc2CN1c1cc(N2CCN(C)CC2)nc(N)n1 (single isomer, unassigned) [Example 115, 4-[7-(1-Cyclopentyl-1H-pyrazol-4-yl)-3-methyl-3,4-dihydroisoquinolin-2(1H)-yl]-6-(4-methylpiperazin-1-yl)pyrimidin-2-amine]
35	CC1Cc2ccc(-c3cnn(CCO)c3)cc2CN1c1cc(N2CCN(C)CC2)nc(N)n1 (single isomer, unassigned) [Example 110, 2-(4-{2-[2-Amino-6-(4-methylpiperazin-1-yl)pyrimidin-4-yl]-3-methyl-1,2,3,4-tetrahydroisoquinolin-7-yl}-1H-pyrazol-1-yl)ethanol]
34	CC(C#N)Cn1cc(-c2ccc3c(c2)CN(c2cc(N4CCN(C)CC4)nc(N)n2)C(C)C3)cn1 (single isomer, unassigned) [Example 101, 3-(4-{2-[2-Amino-6-(4-methylpiperazin-1-yl)pyrimidin-4-yl]-3-methyl-1,2,3,4-tetrahydroisoquinolin-7-yl}-1H-pyrazol-1-yl)-2-methylpropanenitrile]
34	CC1Cc2ccc(-c3cnn(CCC(N)=O)c3)cc2CN1c1cc(N2CCN(C)CC2)nc(N)n1 (single isomer, unassigned) [Example 114, 3-(4-{2-[2-Amino-6-(4-methylpiperazin-1-yl)pyrimidin-4-yl]-3-methyl-1,2,3,4-tetrahydroisoquinolin-7-yl}-1H-pyrazol-1-yl)propanamide]
24	CC1Cc2ccc(-c3cnn(C4CCS(=O)(=O)C4)c3)cc2CN1c1cc(N2CCN(C)CC2)nc(N)n1 (single isomer, unassigned) [Example 98A, 4-[7-[1-(1,1-dioxidotetrahydro-3-thienyl)-1H-pyrazol-4-yl]-3-methyl-3,4-dihydroisoquinolin-2(1H)-yl]-6-(4-methylpiperazin-1-yl)pyrimidin-2-amine]
24	CC1Cc2ccc(-c3cnn(C(C)CC#N)c3)cc2CN1c1cc(N2CCN(C)CC2)nc(N)n1 (single isomer, unassigned) [Example 103, 3-(4-{2-[2-Amino-6-(4-methylpiperazin-1-yl)pyrimidin-4-yl]-3-methyl-1,2,3,4-tetrahydroisoquinolin-7-yl}-1H-pyrazol-1-yl)butanenitrile]
22	CC1Cc2ccc(-c3cnn(C4CCN(CCO)CC4)c3)cc2CN1c1cc(N2CCN(C)CC2)nc(N)n1 (single isomer, unassigned) [Example 111, 2-[4-(4-{2-[2-Amino-6-(4-methylpiperazin-1-yl)pyrimidin-4-yl]-3-methyl-1,2,3,4-tetrahydroisoquinolin-7-yl}-1H-pyrazol-1-yl)piperidin-1-yl]ethanol]
20	CC1Cc2ccc(-c3cnn(CCF)c3)cc2CN1c1cc(N2CCN(C)CC2)nc(N)n1 (single isomer, unassigned) [Example 100, 4-[7-[1-(2-fluoroethyl)-1H-pyrazol-4-yl]-3-methyl-3,4-dihydroisoquinolin-2(1H)-yl]-6-(4-methylpiperazin-1-yl)pyrimidin-2-amine]
15.3	CC1Cc2ccc(-c3ccn(Cc4ccccn4)n3)cc2CN1c1cc(N2CCN(C)CC2)nc(N)n1 (single isomer, unassigned) [Example 155, 4-(4-Methylpiperazin-1-yl)-6-[3-methyl-7-[1-(pyridin-2-ylmethyl)-1H-pyrazol-3-yl]-3,4-dihydroisoquinolin-2(1H)-yl]pyrimidin-2-amine]
8.7	CC1Cc2ccc(-c3ccn(Cc4cccnc4)n3)cc2CN1c1cc(N2CCN(C)CC2)nc(N)n1 (single isomer, unassigned) [Example 156, 4-(4-Methylpiperazin-1-yl)-6-[3-methyl-7-[1-(pyridin-3-ylmethyl)-1H-pyrazol-3-yl]-3,4-dihydroisoquinolin-2(1H)-yl]pyrimidin-2-amine]
8.7	CC1Cc2ccc(-c3ccn(Cc4ccncc4)n3)cc2CN1c1cc(N2CCN(C)CC2)nc(N)n1 (single isomer, unassigned) [Example 157, 4-(4-Methylpiperazin-1-yl)-6-[3-methyl-7-[1-(pyridin-4-ylmethyl)-1H-pyrazol-3-yl]-3,4-dihydroisoquinolin-2(1H)-yl]pyrimidin-2-amine]
